Earlier results as cited in patent US6746695B1, “Pharmaceutical preparations of bioactive substances extracted from natural sources” (Armadillo Pharmaceuticals, Inc., priority 1998, dated 2004).
Read-outs that look alike come from different tables or passages of the source.

Assays:
[1] = mice
[2] = rats
[3] = chickens
[4] = Dogs
prostoglandin synthetase = target: T1, prostoglandin synthetase (Bos taurus, UniProt O62664); details: enzyme prepared from bovine seminal vesicles; compared with aspirin
T1 construct: prostoglandin synthetase prepared from bovine seminal vesicles; from tissue; host or cells: bovine seminal vesicles
T1 sequence (O62664 25-600): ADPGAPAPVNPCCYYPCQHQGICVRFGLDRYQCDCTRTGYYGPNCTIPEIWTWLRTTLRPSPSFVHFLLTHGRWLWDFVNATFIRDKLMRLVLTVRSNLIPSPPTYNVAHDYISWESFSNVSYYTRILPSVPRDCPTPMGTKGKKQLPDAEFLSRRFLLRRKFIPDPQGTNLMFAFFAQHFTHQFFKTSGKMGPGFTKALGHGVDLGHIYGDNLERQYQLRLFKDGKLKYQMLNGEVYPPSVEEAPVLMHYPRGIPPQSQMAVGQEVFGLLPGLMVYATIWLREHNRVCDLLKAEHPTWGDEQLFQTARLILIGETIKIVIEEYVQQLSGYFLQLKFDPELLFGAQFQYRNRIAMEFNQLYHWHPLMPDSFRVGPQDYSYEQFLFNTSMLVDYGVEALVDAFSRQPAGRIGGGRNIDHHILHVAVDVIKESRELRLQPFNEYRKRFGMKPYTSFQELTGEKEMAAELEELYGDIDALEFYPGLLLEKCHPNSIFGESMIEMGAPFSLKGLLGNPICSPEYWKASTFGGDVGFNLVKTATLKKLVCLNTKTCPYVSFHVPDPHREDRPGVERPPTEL

| Structure (SMILES) | food intake [1] | food intake [2] | food intake [3] | weight reduction [4] | potency as inhibitor of prostoglandin synthetase relative to aspirin (prostoglandin synthetase) |
| --- | --- | --- | --- | --- | --- |
| CO[C@H]1[C@@H](OC)C[C@@H](O[C@@H]2O[C@H](CO)[C@@H](O)[C@H](O)[C@H]2O)/C(=C\C#N)[C@@H]1O [Simmondsin] | reducing food intake | reducing food intake | reducing food intake | useful weight reduction agent |  |
| COc1cc2c(cc1OC)[C@@H]1C[C@H](C[C@H]3CCCCN31)OC(=O)/C=C\c1ccc(O)c-2c1 [cryogenine] |  |  |  |  | more than twice as potent as aspirin |
| COc1ccc2c(c1OC)-c1cc(ccc1O)/C=C\C(=O)O[C@H]1C[C@@H]3CCCCC3[C@H]2C1 (stereo partly drawn) [nesodine] |  |  |  |  | more than twice as potent as aspirin |
